{"source": "patent US8815262B2", "about": "“Pharmaceutical composition and preparation for oral administration” (FUJIFILM Corporation, priority 2010, dated 2014)", "origin": "cited, not measured here", "settings": "oral administration", "data": [{"compound": "CC(=O)O[C@H]1C(=O)[C@@]2(C)[C@H]([C@H](OC(=O)c3ccccc3)[C@]3(O)C[C@H](OC(=O)[C@H](O)[C@@H](NC(=O)c4ccccc4)c4ccccc4)C(C)=C1C3(C)C)[C@]1(OC(C)=O)CO[C@@H]1C[C@@H]2O", "note": "[paclitaxel]", "values": [{"measurement": "bioavailability", "value": "≤ 4", "unit": "%"}]}]}
